Results on ten molecules are retold here after patent US12492188B2, “1H-benzo[D]imidazole derivatives as TLR9 inhibitors for the treatment of fibrosis” (BRISTOL-MYERS SQUIBB COMPANY, priority 2020, dated 2025).

Each structure is given as a SMILES string. Like-named read-outs stand apart in the source and are kept apart here. Some results are limits rather than exact numbers.

What all share (format): cell-based
The target in assay [1] is T1, human TLR9 (Homo sapiens, UniProt Q9NR96).
T1 construct: host or cells: HEK-Blue cells (HEK293-derived reporter line)
T1 sequence (Q9NR96 26-1032): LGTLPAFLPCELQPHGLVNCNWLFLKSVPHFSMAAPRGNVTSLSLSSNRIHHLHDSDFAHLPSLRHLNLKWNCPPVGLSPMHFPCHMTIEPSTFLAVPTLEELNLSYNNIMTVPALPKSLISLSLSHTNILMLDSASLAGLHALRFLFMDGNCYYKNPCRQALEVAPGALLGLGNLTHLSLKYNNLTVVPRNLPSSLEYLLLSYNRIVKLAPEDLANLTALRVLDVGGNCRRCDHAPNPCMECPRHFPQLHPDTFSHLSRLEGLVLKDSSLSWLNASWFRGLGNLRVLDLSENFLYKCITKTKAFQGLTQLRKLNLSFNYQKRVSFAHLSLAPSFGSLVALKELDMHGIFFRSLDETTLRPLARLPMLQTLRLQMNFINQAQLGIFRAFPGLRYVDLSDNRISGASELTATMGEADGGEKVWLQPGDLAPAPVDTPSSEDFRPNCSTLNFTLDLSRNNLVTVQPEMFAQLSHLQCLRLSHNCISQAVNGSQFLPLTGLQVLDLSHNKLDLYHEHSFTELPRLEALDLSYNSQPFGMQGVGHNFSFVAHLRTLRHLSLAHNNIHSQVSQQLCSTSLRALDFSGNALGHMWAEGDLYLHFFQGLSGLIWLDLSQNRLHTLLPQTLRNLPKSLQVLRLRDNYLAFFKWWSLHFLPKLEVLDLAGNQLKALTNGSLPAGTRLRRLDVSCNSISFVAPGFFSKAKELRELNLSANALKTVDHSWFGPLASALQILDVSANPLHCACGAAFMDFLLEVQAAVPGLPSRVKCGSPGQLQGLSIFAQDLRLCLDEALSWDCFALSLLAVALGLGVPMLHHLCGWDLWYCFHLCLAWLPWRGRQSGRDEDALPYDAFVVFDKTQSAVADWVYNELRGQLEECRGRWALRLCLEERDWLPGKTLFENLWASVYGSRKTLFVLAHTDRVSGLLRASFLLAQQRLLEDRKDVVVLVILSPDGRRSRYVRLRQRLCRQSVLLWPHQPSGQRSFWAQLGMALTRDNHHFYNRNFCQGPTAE
Put plainly: TLR9 inhibition reporter assay (HEK-Blue cells, secreted embryonic alkaline phosphatase reporter). In short, it runs like this: (§1)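 Cells seeded at 15000 (TLR7), 20,000 (TLR8) or 25,000 (TLR9) per well; compound 0.05 nM–50 μM, 30 min RT pre-incubation. Agonists: gardiquimod 7.5 μM, R848 15.9 μM, ODN2006 5 nM respectively. 22 h, 37 °C; SEAP via HEK-Blue Detection; % inhibition vs agonist+DMSO and known-inhibitor wells.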
On the technique in general: Reporter assays use an easily measured gene product as a stand-in for the process of interest.

Assay [2] has as its target T2, human TLR7 (Homo sapiens, UniProt Q9NYK1).
T2 construct: host or cells: HEK-Blue cells (HEK293-derived reporter line)
T2 sequence (Q9NYK1 27-1049): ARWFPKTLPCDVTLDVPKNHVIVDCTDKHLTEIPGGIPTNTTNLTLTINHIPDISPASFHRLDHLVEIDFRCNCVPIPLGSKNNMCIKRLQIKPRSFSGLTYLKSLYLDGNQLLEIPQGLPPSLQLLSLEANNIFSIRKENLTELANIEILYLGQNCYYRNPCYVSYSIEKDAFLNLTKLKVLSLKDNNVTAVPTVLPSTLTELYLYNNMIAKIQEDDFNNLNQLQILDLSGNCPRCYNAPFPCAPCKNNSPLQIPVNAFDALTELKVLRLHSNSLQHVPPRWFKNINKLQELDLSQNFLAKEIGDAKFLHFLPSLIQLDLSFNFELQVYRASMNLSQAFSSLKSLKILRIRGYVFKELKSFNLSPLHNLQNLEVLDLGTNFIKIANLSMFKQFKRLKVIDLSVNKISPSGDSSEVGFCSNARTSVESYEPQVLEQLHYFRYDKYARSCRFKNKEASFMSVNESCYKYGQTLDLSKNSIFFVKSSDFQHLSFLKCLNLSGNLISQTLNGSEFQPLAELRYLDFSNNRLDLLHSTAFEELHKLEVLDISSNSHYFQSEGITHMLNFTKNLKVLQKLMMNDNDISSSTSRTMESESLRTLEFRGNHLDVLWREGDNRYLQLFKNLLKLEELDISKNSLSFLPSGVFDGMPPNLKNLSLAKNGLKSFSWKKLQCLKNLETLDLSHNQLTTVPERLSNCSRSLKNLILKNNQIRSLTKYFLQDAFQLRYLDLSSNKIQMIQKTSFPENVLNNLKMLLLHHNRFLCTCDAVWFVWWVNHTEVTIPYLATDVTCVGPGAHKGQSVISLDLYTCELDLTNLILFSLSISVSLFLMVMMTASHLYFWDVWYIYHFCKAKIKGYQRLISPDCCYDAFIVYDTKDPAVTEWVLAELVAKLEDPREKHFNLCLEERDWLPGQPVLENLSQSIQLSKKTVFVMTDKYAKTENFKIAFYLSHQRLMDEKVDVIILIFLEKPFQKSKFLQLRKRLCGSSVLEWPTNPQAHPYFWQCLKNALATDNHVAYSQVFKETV
Kind of assay: TLR7 inhibition reporter assay (HEK-Blue cells, secreted embryonic alkaline phosphatase reporter). The following applies: HEK-Blue cells overexpressing human TLR7, stimulated with gardiquimod 7.5 μM; read-out: TLR 7 IC50. In short, it runs like this: as §1

Assay [3] deals with T3, human TLR8 (Homo sapiens, UniProt Q9NR97).
T3 construct: host or cells: HEK-Blue cells (HEK293-derived reporter line)
T3 sequence (Q9NR97 27-1041): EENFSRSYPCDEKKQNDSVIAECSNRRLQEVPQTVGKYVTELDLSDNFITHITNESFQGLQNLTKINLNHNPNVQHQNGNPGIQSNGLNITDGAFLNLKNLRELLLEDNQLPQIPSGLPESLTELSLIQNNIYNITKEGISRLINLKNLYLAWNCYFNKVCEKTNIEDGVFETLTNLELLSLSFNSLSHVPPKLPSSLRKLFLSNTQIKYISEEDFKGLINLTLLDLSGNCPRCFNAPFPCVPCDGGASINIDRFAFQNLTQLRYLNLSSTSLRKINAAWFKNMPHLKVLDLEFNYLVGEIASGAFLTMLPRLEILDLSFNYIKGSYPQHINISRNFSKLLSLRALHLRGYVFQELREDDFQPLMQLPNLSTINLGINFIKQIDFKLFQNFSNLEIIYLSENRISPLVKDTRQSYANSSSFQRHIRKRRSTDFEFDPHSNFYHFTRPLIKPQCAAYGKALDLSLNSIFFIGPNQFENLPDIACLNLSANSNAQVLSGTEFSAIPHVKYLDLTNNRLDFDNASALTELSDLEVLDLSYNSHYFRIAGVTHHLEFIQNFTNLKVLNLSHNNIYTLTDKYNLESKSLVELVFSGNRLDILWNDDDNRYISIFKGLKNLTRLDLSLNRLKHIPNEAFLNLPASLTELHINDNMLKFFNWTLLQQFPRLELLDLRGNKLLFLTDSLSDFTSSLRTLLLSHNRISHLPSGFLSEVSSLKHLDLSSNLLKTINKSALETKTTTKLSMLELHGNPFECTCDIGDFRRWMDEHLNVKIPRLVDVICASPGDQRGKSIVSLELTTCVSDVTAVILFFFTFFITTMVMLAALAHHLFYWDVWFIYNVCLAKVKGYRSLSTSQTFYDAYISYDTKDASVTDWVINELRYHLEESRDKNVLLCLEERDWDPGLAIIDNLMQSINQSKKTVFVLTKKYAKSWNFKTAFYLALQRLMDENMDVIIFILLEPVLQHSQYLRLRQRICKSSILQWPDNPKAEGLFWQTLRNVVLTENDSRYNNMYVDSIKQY
Put plainly: TLR8 inhibition reporter assay (HEK-Blue cells, secreted embryonic alkaline phosphatase reporter). The note with it: HEK-Blue cells overexpressing human TLR8, stimulated with R848 15.9 μM; read-out: TLR 8 IC50. In short, it runs like this: as §1

The mark [4] stands for this setting: HEK-Blue cells overexpressing human TLR9, stimulated with ODN2006 5 nM, read-out: TLR 9 IC50.
[5] abbreviates: HEK-Blue human TLR9 reporter cells.

As for `Cn1c(-c2ccc(S(C)(=O)=O)cc2)nc2ccc(C3CCN(C4CC5CCC(C4)N5C4CCOCC4)CC3)c(F)c21` (stereo not shown) [Example 274, 7-fluoro-1-methyl-2-(4-(methylsulfonyl)phenyl)-6-(1-(8-(tetrahydro-2H-pyran-4-yl)-8-azabicyclo[3.2.1]octan-3-yl)piperidin-4-yl)-1H-benzo[d]imidazole], the IC50 in assay [1] is 51 nM; in assay [1] (setting [4]) it was 51 nM; in assay [2], 26100 nM; in assay [3], more than 50000 nM.

For the molecule `Cn1c(-c2ccc(S(C)(=O)=O)cc2)nc2ccc(C3CCN(C4CC5CCC(C4)N5C4CCOCC4)CC3)c(F)c21` (stereo not shown) [Example 275, 7-fluoro-1-methyl-2-(4-(methylsulfonyl)phenyl)-6-(1-(8-(tetrahydro-2H-pyran-4-yl)-8-azabicyclo[3.2.1]octan-3-yl)piperidin-4-yl)-1H-benzo[d]imidazole], the 50% inhibitory concentration (IC50) in assay [1] is 89 nM; in assay [1] (setting [4]), 89 nM; in assay [2], more than 50000 nM; in assay [3], more than 50000 nM.

Regarding `CC(C)CN1CCC(N2CCC(c3cc(F)c4nc(-c5ccc(S(C)(=O)=O)cc5)n(C)c4c3)CC2)CC1` [Example 278, 4-fluoro-6-(1′-isobutyl-[1,4′-bipiperidin]-4-yl)-1-methyl-2-(4-(methylsulfonyl)phenyl)-1H-benzo[d]imidazole], the half-maximal inhibitory concentration (IC50) in assay [1] was 58 nM; in assay [1] (setting [4]), 58 nM; in assay [2] it was 9000 nM; in assay [3], more than 50000 nM.

On to `Cn1c(-c2ccc(S(C)(=O)=O)cc2)nc2c(F)cc(C3CCN(C4CCN(C5COC5)CC4)CC3)cc21` [Example 279, 4-fluoro-1-methyl-2-(4-(methylsulfonyl)phenyl)-6-(1′-(oxetan-3-yl)-[1,4′-bipiperidin]-4-yl)-1H-benzo[d]imidazole], for which the IC50 in assay [1] is 1200 nM; in assay [1] (setting [4]), 1220 nM; in assay [2], 19500 nM; in assay [3], more than 50000 nM.

Take `Cn1c(-c2ccc(S(C)(=O)=O)cc2)nc2c(F)cc(C3CCN(C4CCN(C5CCOCC5)CC4)CC3)cc21` [Example 280, 4-fluoro-1-methyl-2-(4-(methylsulfonyl)phenyl)-6-(1′-(tetrahydro-2H-pyran-4-yl)-[1,4′-bipiperidin]-4-yl)-1H-benzo[d]imidazole]: the half-maximal inhibitory concentration (IC50) in assay [1] was 73 nM; in assay [1] (setting [4]) it was 73 nM; in assay [2], 700 nM; in assay [3], more than 50000 nM.

In the case of `COCCN1CCC(N2CCC(c3cc(F)c4nc(-c5ccc(S(C)(=O)=O)cc5)n(C)c4c3)CC2)CC1` [Example 281, 4-fluoro-6-(1′-(2-methoxyethyl)-[1,4′-bipiperidin]-4-yl)-1-methyl-2-(4-(methylsulfonyl)phenyl)-1H-benzo[d]imidazole], the 50% inhibitory concentration (IC50) in assay [1] is 120 nM; in assay [1] (setting [4]), 124 nM; in assay [2], 7000 nM; in assay [3] it was more than 50000 nM.

With `CC(C)CN1C2CCC1CC(N1CCC(c3cc(F)c4nc(-c5ccc(S(C)(=O)=O)cc5)n(C)c4c3)CC1)C2` (stereo not shown) [Example 284, 4-fluoro-6-(1-(8-isobutyl-8-azabicyclo[3.2.1]octan-3-yl)piperidin-4-yl)-1-methyl-2-(4-(methylsulfonyl)phenyl)-1H-benzo[d]imidazole], the IC50 is 118 nM in assay [1] (setting [4]), 120 nM in assay [1] (setting [5]), 5300 nM in assay [2] and more than 50000 nM in assay [3].

As to `CC(C)CN1C2CCC1CC(N1CCC(c3cc(F)c4nc(-c5ccc(S(C)(=O)=O)cc5)n(C)c4c3)CC1)C2` (stereo not shown) [Example 285, 4-fluoro-6-(1-(8-isobutyl-8-azabicyclo[3.2.1]octan-3-yl)piperidin-4-yl)-1-methyl-2-(4-(methylsulfonyl)phenyl)-1H-benzo[d]imidazole], the IC50 was 248 nM in assay [1] (setting [4]), 250 nM in assay [1] (setting [5]), 4800 nM in assay [2] and more than 50000 nM in assay [3].

As for `Cn1c(-c2ccc(S(C)(=O)=O)cc2)nc2c(F)cc(C3CCN(C4CC5CCC(C4)N5C4COC4)CC3)cc21` (stereo not shown) [Example 286, 4-fluoro-1-methyl-2-(4-(methylsulfonyl)phenyl)-6-(1-(8-(oxetan-3-yl)-8-azabicyclo[3.2.1]octan-3-yl)piperidin-4-yl)-1H-benzo[d]imidazole], the IC50 in assay [1] (setting [4]) is 41 nM; in assay [1] (setting [5]), 41 nM; in assay [2], 29000 nM; in assay [3] it was more than 50000 nM.

For the molecule `CC(C)CN1CCCC(N2CCC(c3cc(F)c4nc(-c5ccc(S(C)(=O)=O)cc5)n(C)c4c3)CC2)CC1` (stereo not shown) [Example 296, 4-fluoro-6-(1-(1-isobutylazepan-4-yl)piperidin-4-yl)-1-methyl-2-(4-(methylsulfonyl)phenyl)-1H-benzo[d]imidazole], the IC50 in assay [1] (setting [4]) is 22 nM; in assay [1] (setting [5]), 22 nM; in assay [2], 14100 nM; in assay [3], more than 50000 nM.

By IC50 is commonly meant the concentration at which inhibition is half-maximal.
